Values joined by “and” are separate entries in the source; they are usually repeats but may differ in a detail not shown here. Equal values may be shown once. Where a name gives a salt, the structure may show the parent alone. Read-outs that look alike come from different tables or passages of the source.
How the values were obtained:
[1] = system: rms1-10 pea mutant plants; assay: Pea shoot-branching assay by direct application on the bud, rms1-10; type: in vivo, Pisum sativum; conditions: for Length of bud at node 3 /branch: direct application, rms1-10, 10 days after treatment; for Bioactivity on shoot branching inhibition (bud development): result in words
Experimental: (§1) Pea (Pisum sativum) branching mutant plants used in this study were described previously (Rameau et al., [1997]). The SL biosynthesis rms1-10 (M3T-884) and SL response rms3-4 (M2T-30) mutants were obtained from the dwarf cv. Térèse. Plants were grown in a greenhouse under long days as described by Braun et al. ([2012]).
(§2) The compounds to be tested were applied directly to the axillary bud with a micropipette as 10 μL of a solution containing 0.1% of acetone with 2% of polyethylene glycol 1,450, 50% of ethanol, and 0.4% of DMSO. The control 0 is the treatment with 0.1% of DMSO without compound. A total of 24 plants were sown per treatment in trays (2 repetitions of 12 plants). The treatment was done 8 days after sowing, on the axillary bud at node 3. The branches at nodes 1–2 were removed to encourage the outgrowth of axillary buds at nodes above. Nodes were numbered acropetally from the first scale leaf as node 1 and cotyledonary node as node 0. Bud growth at node 3 was measured 10 days after treatment. Plants with damaged main shoot apex or showing a dead white treated bud were discarded from the analysis. The SL-deficient rms1-10 pea mutant was used for all experiments and WT Térèse as control. SL-perceived rms3-4 pea mutant was used to test that when bioactive, the analog acts via RMS3, and it was also used to check the putative toxicity of probes.

[2] = system: Arabidopsis SL-deficient mutant max3-11; assay: Hydroponic assay on Arabidopsis, rosette branches; type: in vivo, Arabidopsis thaliana; conditions: max3-11, hydroponic, 0.5 and 3 μM
Experimental: The hydroponic assay was adapted from the study by Cornet et al. ([2021]). Seeds were surface-sterilized for 8 min in a solution of ethanol (95%) and hypochlorite solution (10%; Bayrol, Mundolsheim, France) and were rinsed two times with ethanol (100%). Each seed was sown on top of a cut 0.5 ml Eppendorf tube filled with agar medium containing 0.65% of agar and 10% of nutritive solution of 5 mM NO3. Tubes were soaked in water and stored in the dark at 4°C for 2 days. Twelve plants per pipette tip box (13 × 9 × 7 cm) were grown and supplied with nutrient solution as in the study by Boyer et al. ([2014]) at a concentration of 5 ml/L (750 ml of solution per box). Every week, the nutrient solution was renewed and every 10 days one time, a fresh batch of treatment was added to the solution. The first treatment occurred at day 27 after sowing when plants started to bolt. The number of rosette branches was counted at day 42.

[3] = system: rms1-10 pea mutant plants; assay: Pea shoot-branching assay by vascular supply, rms1-10; type: in vivo, Pisum sativum; conditions: rms1-10, 3,000 nM
Experimental: as §1
The compounds to be tested were applied by vascular supply (Muñoz et al., [2021]). The control was the treatment with 0.1% of DMSO in water. A total of 12 plants were sown per treatment in trays and were treated with probes under node 3 bud generally 10 days after sowing. Compounds in DMSO solution were diluted with water to 3,000 nM for a treatment with 0.1% (v/v) DMSO. The branches at nodes 1 and 2 were removed to encourage the outgrowth of axillary buds at the nodes above. Nodes were numbered acropetally from the first scale leaf as node 1 and cotyledonary node as node 0. Bud growth at nodes 3 and 4 was measured with digital calipers 8–10 days after treatment. Plants with damaged main shoot apex or with a dead white treated-bud were discarded from the analysis. The SL-deficient rms1-10 pea mutant was used for all experiments.

Ppccd8 mutant plants [4] = assay: Physcomitrium patens bioassay, number of filaments in the dark; type: in vivo; conditions: 1 μM; for Activity on filament number, one bioassay replication: Supplementary Figure 3
Experimental: Assays on Physcomitrium patens were performed on plants grown in 24-well plates, starting from very small pieces of moss tissues as described by Guillory and Bonhomme ([2021]). As for pea rms1, the Ppccd8 SL synthesis mutant was used for assays, since the effect of the compounds was better seen in this mutant vs. wild type (WT; Lopez-Obando et al., [2021]). For each treatment, 24 plants were grown in PpNO3 medium [minimal medium described by Ashton et al., [1979]], dispatched in three different plates. Plants were grown for 2 weeks under control conditions, then treated with fluorophores or probes (all compounds used at 1 μM), before being placed vertically in the dark for 10 days. A single picture of each well was taken under an Axio Zoom microscope (Zeiss) with a dedicated program. Filaments were counted using ImageJ software (http://imagej.nih.gov/ij/) as described by Guillory and Bonhomme ([2021]). Twenty-four plants were tested in each treatment.

RMS3 protein [5] = target: T1, RMS3 protein (Pisum sativum, UniProt A0A109QYD3); assay: DSF binding assay on RMS3; conditions: 10 µM RMS3, probe 0-400 µM
T1 construct: GST; made in house
T1 sequence (A0A109QYD3 1-267): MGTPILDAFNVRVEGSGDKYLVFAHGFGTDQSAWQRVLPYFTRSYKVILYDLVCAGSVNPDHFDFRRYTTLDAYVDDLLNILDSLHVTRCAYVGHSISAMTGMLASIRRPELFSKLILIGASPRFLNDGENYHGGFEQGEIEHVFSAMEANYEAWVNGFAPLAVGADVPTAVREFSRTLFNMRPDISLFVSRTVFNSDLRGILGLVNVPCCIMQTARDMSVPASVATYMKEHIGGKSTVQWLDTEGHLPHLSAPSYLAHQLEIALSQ
Excerpt: To search for a destabilization effect, which characterizes bioactive SL analogs with SL receptors, we performed DSF binding assay with our novel probes on RMS3 protein.
DSF assay with SL profluorescent probes. The melting temperature

RMS3 protein [6] = target: T1, RMS3 protein; assay: Enzymatic assay with profluorescent probes, RMS3; type: biochemical; conditions: probe 10 μM, RMS3 400 nM, 25°C, result in words
rms3-4 pea mutant plants = assay: Pea shoot-branching assay by direct application on the bud, rms3-4; type: in vivo, Pisum sativum; conditions: 1,000 nM, rms3-4, 10 days after treatment
Experimental: as §1, §2

[7] = system: rms1-10 pea mutant plants; conditions: cited from earlier work; for Length of bud at node 3 /branch: direct application, rms1-10, tested previously, ref De saint Germain et al 2016
Ppccd8 mutant plants [8] = conditions: WT and Ppccd8; ref Hoffmann et al., 2014; Lopez-Obando et al., 2021; cited from earlier work
ShD14 = system: ShD14; set-up: method as in Xu et al., 2018; conditions: ref Xu et al., 2018; cited from earlier work
pea = assay: Bioactivity of D14 inhibitors in pea; conditions: in vivo

7-Hydroxycoumarin [reference compound]
Length of bud at node 3 /branch ([1]; 1,000 nM, mean per replicate): 41.46 mm

CC1=CC(Oc2ccc3nc4ccc(=O)cc-4oc3c2)OC1=O (racemic) [(±)-GC93, 7-[(4-Methyl-5-Oxo-2,5-Dihydrofuran-2-yl)Oxy]-3H-Phenoxazin-3-One]
Bioactivity on number of rosette branches [2]: not bioactive | Bioactivity by vascular supply compared to the coumarin derivatives series [3]: lower bioactivity | Activity on filament number (Ppccd8 mutant plants [4]): strongest activity | Length of bud at node 3 /branch ([1]; 10 nM, mean per replicate): 17.73 mm | Length of bud at node 3 /branch ([1]; 10,000 nM, mean per replicate): 3.89 mm | Bioactivity on shoot branching inhibition (bud development) ([1]; rms1-10, direct application): inhibitory effect with statistical significance only at 10 μM

CC1=CC(Oc2ccc3ccc(=O)oc3c2)OC1=O (racemic) [(±)-GC116]
Bioactivity on number of rosette branches [2]: bioactive at 3 μM | Activity on filament number, one bioassay replication (Ppccd8 mutant plants [4]): no significant bioactivity | Length of bud at node 3 /branch ([1]; 0.1 nM): 11.47 mm | Length of bud at node 3 /branch ([1]; 1 nM): 6.38 mm | Length of bud at node 3 /branch ([1]; 10 nM, mean per replicate): 2.47 mm and 2.26 mm and 5.20 mm and 4.34 mm and 3.85 mm | Length of bud at node 3 /branch ([1]; 100 nM, mean per replicate): 2.66 mm and 2.29 mm and 2.46 mm and 1.96 mm and 1.72 mm | Length of bud at node 3 /branch ([1]; 1,000 nM, mean per replicate): 1.67 mm and 3.13 mm and 1.60 mm and 2.22 mm and 1.97 mm and 2.21 mm | Length of bud at node 3 /branch ([1]; 10,000 nM, mean per replicate): 2.43 mm | Inhibition of bud development among probes with one methyl group on the D-ring ([1]; rms1-10, direct application, 10 nM): strongest inhibition of bud development | Bioactivity on shoot branching inhibition (bud development) ([1]; rms1-10, direct application): inhibition of bud development | Destabilization of RMS3 (DSF) (RMS3 protein [5]): able to destabilize RMS3

CC1=C(C)C(Oc2ccc3ccc(=O)oc3c2)OC1=O (racemic) [(±)-GC155]
Length of bud at node 3 /branch ([1]; 10 nM, mean per replicate): 5.97 mm and 16.85 mm and 8.43 mm | Length of bud at node 3 /branch ([1]; 100 nM, mean per replicate): 3.68 mm and 4.11 mm and 2.71 mm and 5.98 mm and 1.83 mm | Length of bud at node 3 /branch ([1]; 1,000 nM, mean per replicate): 1.98 mm and 1.45 mm and 1.92 mm and 1.96 mm and 2.38 mm and 2.32 mm | Length of bud at node 3 /branch ([1]; 10,000 nM, mean per replicate): 2.06 mm | Bioactivity on shoot branching inhibition (bud development) ([1]; rms1-10, direct application): among the most bioactive molecules | Destabilization of RMS3 (DSF) (RMS3 protein [5]): able to destabilize RMS3 | Cleavage kinetics by RMS3 (RMS3 protein [6]): two-phase kinetic

CC1=C(C)C(Oc2ccc3nc4ccc(=O)cc-4oc3c2)OC1=O (racemic) [(±)-GC247, 7-[(3,4-Dimethyl-5-Oxo-2,5-Dihydrofuran-2-yl)Oxy]-3H-Phenoxazin-3-One]
Length of bud at node 3 /branch ([1]; 10 nM, mean per replicate): 12.39 mm | Length of bud at node 3 /branch ([1]; 10,000 nM, mean per replicate): 6.54 mm | Bioactivity on shoot branching inhibition (bud development) ([1]; rms1-10, direct application): inhibitory effect with statistical significance only at 10 μM | Cleavage kinetics by RMS3 (RMS3 protein [6]): two-phase kinetic

COc1cc2ccc(=O)oc2cc1OC1C=C(C)C(=O)O1 (racemic) [(±)-GC379]
Length of bud at node 3 /branch (rms3-4 pea mutant plants): 26.30 | Length of bud at node 3 /branch ([1]; 10 nM, mean per replicate): 3.54 mm | Length of bud at node 3 /branch ([1]; 100 nM, mean per replicate): 2.81 mm and 5.02 mm and 3.98 mm and 14.32 mm | Length of bud at node 3 /branch ([1]; 1,000 nM, mean per replicate): 3.38 mm and 3.19 mm and 3.65 mm and 3.04 mm | Length of bud at node 3 /branch ([1]; 10,000 nM, mean per replicate): 2.17 mm | Bioactivity on shoot branching inhibition (bud development) ([1]; rms1-10, direct application): bioactive for the three tested concentrations | Destabilization of RMS3 (DSF) (RMS3 protein [5]): able to destabilize RMS3

COc1cc2ccc(=O)oc2cc1OC1OC(=O)C(C)=C1C (racemic) [(±)-GC380]
Length of bud at node 3 /branch (rms3-4 pea mutant plants): 23.62 | Length of bud at node 3 /branch ([1]; 10 nM, mean per replicate): 6.65 mm | Length of bud at node 3 /branch ([1]; 100 nM, mean per replicate): 8.99 mm and 11.66 mm and 5.90 mm | Length of bud at node 3 /branch ([1]; 1,000 nM, mean per replicate): 2.33 mm and 3.47 mm and 2.08 mm | Length of bud at node 3 /branch ([1]; 10,000 nM, mean per replicate): 2.15 mm | Bioactivity on shoot branching inhibition (bud development) ([1]; rms1-10, direct application): bioactive for the three tested concentrations

Cc1cc(=O)oc2c(F)c(OC3C=CC(=O)O3)c(F)cc12 (racemic) [(±)-GC486]
Activity on filament number, one bioassay replication (Ppccd8 mutant plants [4]): slight opposite effect | Length of bud at node 3 /branch ([1]; 10 nM, mean per replicate): 24.70 mm | Length of bud at node 3 /branch ([1]; 100 nM, mean per replicate): 22.10 mm | Length of bud at node 3 /branch ([1]; 1,000 nM, mean per replicate): 23.14 mm | Bioactivity on shoot branching inhibition (bud development) ([1]; rms1-10, direct application): no biological activity | Length of bud at node 3 /branch ([7]; 1,000 nM): 9.26 mm | Length of bud at node 3 /branch ([7]; 5,000 nM): 17.41 mm | Cleavage kinetics by RMS3 (RMS3 protein [6]): Michaelian kinetics

CC1=C[C@H](O/C=C2/C(=O)O[C@@H]3c4ccccc4C[C@H]23)OC1=O (racemic) [(±)-GR24, reference compound]
Bioactivity on number of rosette branches [2]: bioactive at both concentrations | Effect on filament number (Ppccd8 mutant plants [8]): decrease in filament number | Activity on filament number (Ppccd8 mutant plants [4]): confirmed the previous activity | Cleavage by ShD14 (ShD14): could cleave

CCOC(=O)c1ccccc1-c1c2ccc(=O)cc-2oc2cc(OC3C=CC(=O)O3)ccc12 (racemic) [(±)-dYLG, reference compound]
Biological activity on branching inhibition ([7]; ref Yao et al., 2021): no biological activity

CC1=CC(OC=C2C(=O)OC3c4ccccc4CC23)OC1=O (single isomer, unassigned; (+)) [(+)-GR24]
Effect on filament number (Ppccd8 mutant plants [8]): decrease in filament number

CC(=O)Oc1ccc2ccc(=O)oc2c1 [CoumarinAc, 7-Acetoxycoumarin]
Length of bud at node 3 /branch ([1]; 10 nM, mean per replicate): 21.81 mm | Length of bud at node 3 /branch ([1]; 100 nM, mean per replicate): 22.67 mm | Length of bud at node 3 /branch ([1]; 1,000 nM, mean per replicate): 25.33 mm | Bioactivity on shoot branching inhibition (bud development) ([1]; rms1-10, direct application): no effect | Cleavage kinetics by RMS3 (RMS3 protein [6]): slower velocity than DiFMUAc

Cc1cc(=O)oc2c(F)c(O)c(F)cc12 [DiFMU, 6,8-difluoro-7-hydroxy-4-methyl-2H-chromen-2-one, reference compound]
Length of bud at node 3 /branch ([1]; 1,000 nM, mean per replicate): 14.76 mm

O=C(N1CCc2ccccc21)n1ccnn1 [KK094]
Bioactivity in pea (pea): no bioactivity

O=c1ccc2nc3ccc(O)cc3oc-2c1 [Resorufin, reference compound]
Length of bud at node 3 /branch ([1]; 10 nM, mean per replicate): 12.53 mm | Length of bud at node 3 /branch ([1]; 100 nM, mean per replicate): 16.50 mm | Length of bud at node 3 /branch ([1]; 1,000 nM, mean per replicate): 14.90 mm

Cc1c(Cl)cccc1Nc1ccccc1C(=O)O [TFA, tolfenamic acid]
Bioactivity in pea (pea): no bioactivity
